Laboratory results taken from ChEMBL document CHEMBL1201862, “PubChem BioAssay data set” (2004).
Active and inactive are the calls of the source.

Assays:
HEK293 [1] = assay: optical interference in Abeta FP readout, dose response, artefact control for IDE activator project, biochemical, fluorescence polarization (AID 588442); type: functional, cell-based; conditions: Homo sapiens
Insulin-degrading enzyme [2] = biological target: T1, Insulin-degrading enzyme (Homo sapiens, UniProt P14735); assay: cellular IDE activation of Abeta substrate cleavage – fluorescence polarization, HEK cells, dose response (AID 588439); type: functional, cell-based
T1 sequence (P14735 whole entry): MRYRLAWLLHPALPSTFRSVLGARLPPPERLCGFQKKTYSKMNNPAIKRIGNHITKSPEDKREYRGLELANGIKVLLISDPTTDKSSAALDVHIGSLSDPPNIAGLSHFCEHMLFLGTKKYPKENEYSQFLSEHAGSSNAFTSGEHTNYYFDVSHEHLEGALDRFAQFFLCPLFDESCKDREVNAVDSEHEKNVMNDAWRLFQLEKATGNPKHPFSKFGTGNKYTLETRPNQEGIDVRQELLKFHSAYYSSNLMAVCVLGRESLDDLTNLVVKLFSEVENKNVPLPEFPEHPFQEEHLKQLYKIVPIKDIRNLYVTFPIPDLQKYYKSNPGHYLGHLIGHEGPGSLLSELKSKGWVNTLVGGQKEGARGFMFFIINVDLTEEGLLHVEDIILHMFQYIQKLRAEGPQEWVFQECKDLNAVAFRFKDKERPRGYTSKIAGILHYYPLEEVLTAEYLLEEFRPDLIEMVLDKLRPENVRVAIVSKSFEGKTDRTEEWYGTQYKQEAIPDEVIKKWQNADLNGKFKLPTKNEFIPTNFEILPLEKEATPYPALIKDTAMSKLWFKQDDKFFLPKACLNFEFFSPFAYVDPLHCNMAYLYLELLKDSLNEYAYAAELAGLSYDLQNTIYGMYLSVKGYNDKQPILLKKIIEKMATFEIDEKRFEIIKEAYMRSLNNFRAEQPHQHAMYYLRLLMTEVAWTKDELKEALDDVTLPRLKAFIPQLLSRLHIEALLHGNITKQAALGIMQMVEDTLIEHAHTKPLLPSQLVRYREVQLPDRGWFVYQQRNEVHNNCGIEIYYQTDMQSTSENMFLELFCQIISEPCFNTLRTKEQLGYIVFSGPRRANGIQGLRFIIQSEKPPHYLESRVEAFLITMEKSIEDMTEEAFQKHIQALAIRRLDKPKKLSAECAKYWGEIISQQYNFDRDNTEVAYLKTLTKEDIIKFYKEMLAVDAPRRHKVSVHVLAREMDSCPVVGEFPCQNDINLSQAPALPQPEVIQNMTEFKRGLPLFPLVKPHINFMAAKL

HEK293 [3] = assay: membrane integrity loss in HEK cells – cell-based, fluorescence, cytotoxicity control for IDE activator project, dose response (AID 588440); type: functional; conditions: Homo sapiens;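 further: cytotoxicity by LDH release measuring loss of membrane integrity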
Insulin-degrading enzyme [4] = biological target: T1, Insulin-degrading enzyme; assay: recombinant IDE activation, cell-free – biochemical, fluorescence polarization, counter-screen for IDE activator project, dose response (AID 588681)
[5] = biological target: T2, Sentrin-specific protease 6 (Homo sapiens, UniProt Q9GZR1); assay: SAR Analysis of small molecule inhibitors of Sentrin-specific protease 6 (SENP6) using a Luminescent assay. [Related pubchem assays (depositor defined):AID2582, AID2599]; type: functional
T2 sequence (Q9GZR1 whole entry): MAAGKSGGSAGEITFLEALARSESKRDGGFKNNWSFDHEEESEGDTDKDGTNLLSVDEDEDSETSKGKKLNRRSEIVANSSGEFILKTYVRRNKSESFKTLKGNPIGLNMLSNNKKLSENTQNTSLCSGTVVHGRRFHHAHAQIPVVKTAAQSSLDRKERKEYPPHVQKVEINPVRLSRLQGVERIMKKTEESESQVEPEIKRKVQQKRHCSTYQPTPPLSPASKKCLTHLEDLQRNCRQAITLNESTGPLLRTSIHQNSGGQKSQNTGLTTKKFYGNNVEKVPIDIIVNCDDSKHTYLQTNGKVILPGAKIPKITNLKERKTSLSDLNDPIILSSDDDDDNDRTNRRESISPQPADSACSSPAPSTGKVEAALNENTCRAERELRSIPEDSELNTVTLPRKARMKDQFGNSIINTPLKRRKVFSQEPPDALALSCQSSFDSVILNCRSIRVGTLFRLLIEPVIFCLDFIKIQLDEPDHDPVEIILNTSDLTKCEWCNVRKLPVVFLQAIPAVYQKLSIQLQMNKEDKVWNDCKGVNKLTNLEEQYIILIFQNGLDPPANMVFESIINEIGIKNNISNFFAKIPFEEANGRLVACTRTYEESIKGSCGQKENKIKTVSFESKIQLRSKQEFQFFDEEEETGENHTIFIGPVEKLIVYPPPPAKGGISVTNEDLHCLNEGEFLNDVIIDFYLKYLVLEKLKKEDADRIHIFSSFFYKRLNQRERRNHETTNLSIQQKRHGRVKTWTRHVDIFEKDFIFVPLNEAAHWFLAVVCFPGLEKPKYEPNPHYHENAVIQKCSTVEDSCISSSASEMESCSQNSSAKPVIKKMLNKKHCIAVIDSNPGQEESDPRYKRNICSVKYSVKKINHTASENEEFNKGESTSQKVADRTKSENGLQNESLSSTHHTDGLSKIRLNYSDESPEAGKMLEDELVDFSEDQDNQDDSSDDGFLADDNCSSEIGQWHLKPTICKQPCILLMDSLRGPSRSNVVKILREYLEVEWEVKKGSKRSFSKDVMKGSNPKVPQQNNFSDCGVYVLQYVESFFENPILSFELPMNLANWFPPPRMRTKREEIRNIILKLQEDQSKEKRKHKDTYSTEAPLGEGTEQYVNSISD

[6] = biological target: T3, Sentrin-specific protease 8 (Homo sapiens, UniProt Q96LD8); assay: inhibition of human SENP8 cleavage activity – biochemical, luminescence, SAR follow-up (AID 504501); type: functional
T3 sequence (Q96LD8 whole entry): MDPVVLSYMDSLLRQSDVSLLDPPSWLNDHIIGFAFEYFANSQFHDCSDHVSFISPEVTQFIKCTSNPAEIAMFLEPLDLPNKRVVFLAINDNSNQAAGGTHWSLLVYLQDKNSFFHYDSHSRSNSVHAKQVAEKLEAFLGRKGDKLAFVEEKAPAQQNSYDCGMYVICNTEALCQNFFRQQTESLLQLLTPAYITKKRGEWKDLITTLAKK

[7] = biological target: T4, Sentrin-specific protease 7 (Homo sapiens, UniProt Q9BQF6); assay: inhibition of human SENP7 cleavage activity – biochemical, luminescence, SAR follow-up (AID 504497); type: functional
T4 sequence (Q9BQF6 whole entry): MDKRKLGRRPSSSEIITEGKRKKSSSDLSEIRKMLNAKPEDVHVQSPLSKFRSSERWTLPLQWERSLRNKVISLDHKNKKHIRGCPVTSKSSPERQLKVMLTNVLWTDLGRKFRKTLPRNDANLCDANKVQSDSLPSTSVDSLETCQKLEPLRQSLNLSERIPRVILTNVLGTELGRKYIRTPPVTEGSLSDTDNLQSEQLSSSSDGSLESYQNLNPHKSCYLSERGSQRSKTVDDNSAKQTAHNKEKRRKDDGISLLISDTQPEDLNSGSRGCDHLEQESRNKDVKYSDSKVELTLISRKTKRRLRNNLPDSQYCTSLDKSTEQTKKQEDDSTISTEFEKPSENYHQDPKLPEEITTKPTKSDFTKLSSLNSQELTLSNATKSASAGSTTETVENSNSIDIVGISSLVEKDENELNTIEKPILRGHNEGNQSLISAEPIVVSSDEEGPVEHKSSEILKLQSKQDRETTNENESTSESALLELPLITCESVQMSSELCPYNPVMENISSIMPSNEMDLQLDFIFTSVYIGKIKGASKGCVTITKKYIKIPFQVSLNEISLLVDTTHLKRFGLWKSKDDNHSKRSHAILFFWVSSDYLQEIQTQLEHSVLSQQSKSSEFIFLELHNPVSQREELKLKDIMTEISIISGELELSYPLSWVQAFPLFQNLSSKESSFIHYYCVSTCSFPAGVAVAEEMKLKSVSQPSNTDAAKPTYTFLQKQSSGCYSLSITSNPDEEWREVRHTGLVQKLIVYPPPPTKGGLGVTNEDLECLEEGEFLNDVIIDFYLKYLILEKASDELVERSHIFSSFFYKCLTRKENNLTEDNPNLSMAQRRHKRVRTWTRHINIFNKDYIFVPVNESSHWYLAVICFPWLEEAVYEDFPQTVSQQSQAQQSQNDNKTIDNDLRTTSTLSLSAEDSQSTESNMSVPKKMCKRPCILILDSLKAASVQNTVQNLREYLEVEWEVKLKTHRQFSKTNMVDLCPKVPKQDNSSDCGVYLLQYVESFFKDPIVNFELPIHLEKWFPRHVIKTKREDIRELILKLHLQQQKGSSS

Caspase-3 = biological target: T5, Caspase-3 (Homo sapiens, UniProt P42574); assay: SAR Analysis of small molecule inhibitors of Sentrin-specific proteases (SENPs) using a Caspase-3 Selectivity assay. [Related pubchem assays (depositor defined):AID2540, AID2599, AID434973, AID489001]; type: functional
T5 sequence (P42574 whole entry): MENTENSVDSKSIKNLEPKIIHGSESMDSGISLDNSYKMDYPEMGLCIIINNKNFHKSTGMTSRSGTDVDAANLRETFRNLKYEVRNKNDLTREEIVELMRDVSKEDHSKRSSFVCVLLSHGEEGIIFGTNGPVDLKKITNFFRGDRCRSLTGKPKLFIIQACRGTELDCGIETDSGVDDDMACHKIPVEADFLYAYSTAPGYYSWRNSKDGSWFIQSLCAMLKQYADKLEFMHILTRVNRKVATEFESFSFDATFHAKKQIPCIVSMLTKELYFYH

| IC50 [5] | IC50 [7] | IC50 (Caspase-3) | Compound | EC50 (HEK293 [1]) | EC50 (Insulin-degrading enzyme [2]) | IC50 (HEK293 [3]) | EC50 (Insulin-degrading enzyme [4]) | IC50 [6] |
| --- | --- | --- | --- | --- | --- | --- | --- | --- |
| – | – | – | CC(=O)N1CCC(=O)Nc2ccc([N+](=O)[O-])cc21 | > 54.7 µM (inactive) | > 54.7 µM (inactive) | > 89.3 µM (inactive) | > 54.7 µM (inactive) | – |
| – | – | – | O=[N+]([O-])c1cccc(Cl)c1NCCNc1ncc(C(F)(F)F)cc1Cl | > 54.7 µM (inactive) | > 54.7 µM (inactive) | > 89.2 µM (inactive) | > 54.7 µM (inactive) | – |
| – | – | – | COc1ccccc1NS(=O)(=O)c1cccc(NC(=O)C2CC2)c1 | > 55.9 µM (inactive) | > 54.7 µM (inactive) | > 89.2 µM (inactive) | > 54.7 µM (inactive) | – |
| > 99 µM (inactive) | > 99 µM (inactive) | > 99 µM (inactive) | CC(C)(CC(=O)Nc1scc(-c2ccc(Br)cc2)c1C(=O)O)CC(=O)Nc1scc(-c2ccc(Br)cc2)c1C(=O)O | – | – | – | – | > 99 µM (inactive) |
| > 99 µM (inactive) | > 99 µM (inactive) | > 99 µM (inactive) | Fc1ccc(/C=C/c2noc(-c3ccc(C(F)(F)F)cc3F)n2)cc1 | – | – | – | – | > 99 µM (inactive) |
